Data as given in patent US20080014584A1, “MODULATING ANDROGEN RECEPTOR ACTIVITY” (MAYO FOUNDATION FOR MEDICAL EDUCATION AND RESEARCH, priority 2006, published 2008).

Legend:
Assay type in all cases: cell-based
Conditions in all cases: 1 nM mibolerone, 24 hours
AR [1] = molecular target: T1, AR (Homo sapiens, UniProt P10275, T878A); assay: PSAenh(ARE)-E4-LUC luciferase reporter assay in LNCaP cells; design: endogenous in cells
T1 sequence (P10275 1-920 T878A): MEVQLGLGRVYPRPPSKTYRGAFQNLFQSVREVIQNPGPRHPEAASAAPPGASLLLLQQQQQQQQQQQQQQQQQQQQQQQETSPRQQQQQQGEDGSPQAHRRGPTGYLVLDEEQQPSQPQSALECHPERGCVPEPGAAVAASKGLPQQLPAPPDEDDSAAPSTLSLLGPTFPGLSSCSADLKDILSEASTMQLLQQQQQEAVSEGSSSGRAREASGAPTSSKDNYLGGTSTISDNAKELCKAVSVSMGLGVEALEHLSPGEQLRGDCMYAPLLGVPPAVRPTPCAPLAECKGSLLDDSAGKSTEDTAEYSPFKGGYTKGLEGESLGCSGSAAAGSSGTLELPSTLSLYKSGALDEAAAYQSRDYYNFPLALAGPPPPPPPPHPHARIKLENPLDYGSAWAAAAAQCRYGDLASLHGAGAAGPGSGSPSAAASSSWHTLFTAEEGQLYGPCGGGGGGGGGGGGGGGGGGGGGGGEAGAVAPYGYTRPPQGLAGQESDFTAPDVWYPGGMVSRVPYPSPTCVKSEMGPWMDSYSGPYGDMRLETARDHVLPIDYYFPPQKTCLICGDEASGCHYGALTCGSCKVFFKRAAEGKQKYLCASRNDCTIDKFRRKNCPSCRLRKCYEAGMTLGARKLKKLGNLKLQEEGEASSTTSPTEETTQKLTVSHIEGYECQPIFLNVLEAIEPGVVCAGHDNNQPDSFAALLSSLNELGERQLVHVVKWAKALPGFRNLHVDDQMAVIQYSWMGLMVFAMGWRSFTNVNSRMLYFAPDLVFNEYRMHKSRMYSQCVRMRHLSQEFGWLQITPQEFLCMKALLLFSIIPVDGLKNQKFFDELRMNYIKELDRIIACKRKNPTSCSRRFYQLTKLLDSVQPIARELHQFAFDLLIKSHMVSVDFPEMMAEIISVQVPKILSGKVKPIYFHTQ
Experimental: The cells were harvested after an additional 24 hours. The transfection efficiency was typically 50-70%.

AR [2] = molecular target: T1, AR; assay: PSA mRNA expression (Northern blot) in LNCaP cells; design: The androgen depletion independent (ADI) LNCaP-derived C4-2 cell line was purchased from UroCor; endogenous in cells; host or cells: C4-2
Experimental: (§1) For androgen response experiments, LNCaP and C4-2 cells were grown in serum-free medium or medium supplemented with 10% charcoal stripped (steroid depleted) serum (CSS) for 48 hours. […] The cells were cultured for an additional 24 hours and then harvested. For C4-2 siRNA-transfection experiments, culture medium was replaced 24 hours post-transfection with RPMI containing 5% CSS. The cells were harvested after 48 hours.
Total cellular RNA was isolated using acid-guanidinium phenol/chloroform extraction as described elsewhere (Chomczynski and Sacchi, Anal Biochem. 162:156-9, (1987)). Equal amounts of RNA (15 μg per lane) were fractionated on 1% denaturing formaldehyde-agarose gels. RNA was transferred to Hybond nylon membranes (Amersham, Piscataway, N.J.), UV cross-linked, and then hybridized with cDNA probes specific for PSA or GAPDH labeled with α^32P-dCTP using a RadPrime labeling kit (Invitrogen). Autoradiography was performed at −80° C. using an intensifier screen (Kodak).

AR [3] = molecular target: T1, AR; assay: PSA mRNA expression (Northern blot) in C4-2 cells; design: The androgen depletion independent (ADI) LNCaP-derived C4-2 cell line was purchased from UroCor; endogenous in cells; host or cells: C4-2
Experimental: as §1
For siRNA transfections, C4-2 cells were seeded at a density of 1.8×10^6 cells on 10 cm dishes in antibiotic-free RPMI 1640 containing 10% FBS. Cells were transfected 24 hours later with 500 pmol of a pool of four siRNAs targeted to the AR (AR SmartPool; Dharmacon, Lafayette, Colo.), or a pool of four non-targeted, control siRNAs (Dharmacon) using 25 μg Lipofectamine (Invitrogen, Carlsbad, Calif.) according to the manufacturer's protocol.
Total cellular RNA was isolated using acid-guanidinium phenol/chloroform extraction as described elsewhere (Chomczynski and Sacchi, Anal Biochem. 162:156-9, (1987)). Equal amounts of RNA (15 μg per lane) were fractionated on 1% denaturing formaldehyde-agarose gels. RNA was transferred to Hybond nylon membranes (Amersham, Piscataway, N.J.), UV cross-linked, and then hybridized with cDNA probes specific for PSA or GAPDH labeled with α^32P-dCTP using a RadPrime labeling kit (Invitrogen). […]

## C[C@@H]1CC2=CC(=O)CC[C@@H]2[C@H]2CC[C@@]3(C)[C@@H](CC[C@]3(C)O)[C@@H]21 [mibolerone]
AR [1]
  activation of the ARE-driven promoter PSAenh(ARE)E4-LUC: robust activation
AR [2]
  PSA mRNA expression on androgen treatment: induced high levels of PSA mRNA expression
AR [3]
  PSA expression on androgen treatment: further increased
